Assay results as given in ChEMBL document CHEMBL5352470, “RS6077 induces mitotic arrest and selectively activates cell death in human cancer cell lines and in a lymphoma tumor in vivo” (Eur J Med Chem, 2023).
Active and inactive are the calls of the source. The calls are words filed in the database; no cut-off is given here.

Legend:
[1] = Toxicity in human T cells derived from human PBMC assessed as necrotic cells at 1 uM measured for 72 hrs by annexin V-FITC and PI staining based flow cytometry analysis (reference value: 0.48 to 0.56 %); details: t-cell
[2] = tested on: HeLa; test: Induction of cell cycle arrest in human HeLa cells assessed as accumulation of cells at G2/M phase at 2500 nM incubated for 72 hrs by annexin V-FITC and PI staining based flow cytometry analysis; assay type: functional
[3] = Toxicity in human T cells derived from human PBMC assessed as viable cells at 1 uM measured for 48 hrs by annexin V-FITC and PI staining based flow cytometry analysis (reference value: 77.5 to 79.5 %); assay type: cell-based, T-cell; details: read-out: Activity
[4] = Toxicity in human T cells derived from human PBMC assessed as necrotic cells at 2.5 uM measured for 48 hrs by annexin V-FITC and PI staining based flow cytometry analysis (reference value: 0.31 to 0.48 %); details: t-cell
[5] = Toxicity in human T cells derived from human PBMC assessed as necrotic cells at 0.1 uM measured for 48 hrs by annexin V-FITC and PI staining based flow cytometry analysis (reference value: 0.31 to 0.48 %); details: t-cell
[6] = tested on: AHH-1; test: Induction of cell cycle arrest in human AHH-1 cells assessed as accumulation of cells at G2/M phase at 2500 nM incubated for 72 hrs by annexin V-FITC and PI staining based flow cytometry analysis; assay type: functional
[7] = tested on: HeLa; test: Induction of cell cycle arrest in human HeLa cells assessed as accumulation of cells at S phase at 100 nM incubated for 72 hrs by annexin V-FITC and PI staining based flow cytometry analysis; assay type: functional
[8] = Metabolic stability in human liver microsome assessed as half life measured upto 60 mins by LC-MS/MS analysis; assay type: ADME; details: liver microsomes
[9] = Toxicity in human T cells derived from human PBMC assessed as necrotic cells at 0.1 uM measured for 72 hrs by annexin V-FITC and PI staining based flow cytometry analysis (reference value: 0.48 to 0.56 %); details: t-cell
[10] = tested on: TERT-RPE1; test: Antiproliferative activity against human TERT-RPE1 cells assessed as inhibition of cell growth measured for 48 hrs by MTT assay; assay type: functional, cell-based; details: RPE-1, 48 h
[11] = Toxicity in human T cells derived from human PBMC assessed as viable cells at 0.1 uM measured for 72 hrs by annexin V-FITC and PI staining based flow cytometry analysis (reference value: 66.5 to 77.5 %); assay type: cell-based, T-cell; details: read-out: Activity
[12] = tested on: MCF7; test: Antiproliferative activity against human MCF7 cells assessed as inhibition of cell growth measured for 48 hrs by MTT assay; assay type: functional, cell-based; details: MCF7, 48 h
[13] = Metabolic stability in mouse liver microsome assessed as half life measured upto 60 mins by LC-MS/MS analysis; assay type: ADME; details: liver microsomes
[14] = Toxicity in NOD/SCID mouse assessed as reduction in body condition score at 100 mg/kg, po administered for 5 days; assay type: organism-based; details: in vivo, 120 h, time 5 day
[15] = tested on: TERT-RPE1; test: Induction of cell cycle arrest in human TERT-RPE1 cells assessed as accumulation of cells at S phase at 1000 nM incubated for 72 hrs by annexin V-FITC and PI staining based flow cytometry analysis; assay type: functional
[16] = tested on: AHH-1; test: Induction of cell cycle arrest in human AHH-1 cells assessed as accumulation of cells at S phase at 2500 nM incubated for 72 hrs by annexin V-FITC and PI staining based flow cytometry analysis; assay type: functional
[17] = tested on: TERT-RPE1; test: Induction of cell cycle arrest in human RPE-1 cells assessed as accumulation of cells at G2 phase incubated for 72 hrs by annexin V-FITC and PI staining based flow cytometry analysis; assay type: functional
[18] = tested on: TERT-RPE1; test: Induction of apoptosis in human RPE-1 cells assessed as early apoptotic cells at 100 to 2500 nM measured after 72 hrs by annexin V-FITC and PI staining based flow cytometry analysis; assay type: functional, cell-based; details: dose 100-2500 nM
[19] = tested on: TMD8; test: Antiproliferative activity against human TMD8 cells assessed as inhibition of cell growth measured for 72 hrs by MTT assay; assay type: functional, cell-based; details: TMD8, 72 h
[20] = Toxicity in human T cells derived from human PBMC assessed as early apoptotic cells at 2.5 uM measured for 48 hrs by annexin V-FITC and PI staining based flow cytometry analysis (reference value: 6.75 to 8.22 %); details: t-cell
[21] = Toxicity in human T cells derived from human PBMC assessed as late apoptotic cells at 2.5 uM measured for 48 hrs by annexin V-FITC and PI staining based flow cytometry analysis (reference value: 13.5 to […] %); details: t-cell
[22] = target: Tubulin (Homo sapiens) (UniProt P68371+Q9H4B7+P0DPH7+P68366+Q13509+Q71U36+P04350+Q3ZCM7+P07437+P68363+Q9BQE3+Q6PEY2+Q13885+Q9BVA1+Q9BUF5); test: Inhibition of [3H]colchicine binding to tubulin (unknown origin) at 1 to 5 uM relative to control; assay type: protein-complex assay; details: dose 1-5 µM
[23] = Toxicity in NOD/SCID mouse assessed as tolerability at 100 mg/kg, po administered for 5 days; assay type: organism-based; details: in vivo, 120 h, time 5 day
[24] = tested on: Z-138; test: Antiproliferative activity against human Z138 cells assessed as inhibition of cell growth measured for 72 hrs by MTT assay; assay type: functional, cell-based; details: Z-138, 72 h
[25] = tested on: TMD8; test: Antitumor activity against human TMD8 cells xenografted in NOD/SCID mouse assessed as reduction in tumor size at 100 mg/kg, po administered for 5 days; assay type: functional, organism-based; details: time 5.0 day
[26] = tested on: TMD8; test: Antitumor activity against human TMD8 cells xenografted in NOD/SCID mouse assessed as reduction in tumor volume at 100 mg/kg, po administered for 5 days and measured on day 1; assay type: functional; details: time 1 day
[27] = Metabolic stability in human liver microsome assessed as intrinsic clearance measured upto 60 mins by LC-MS/MS analysis; assay type: ADME; details: liver microsomes, read-out: CLH
[28] = tested on: TERT-RPE1; test: Induction of cell cycle arrest in human TERT-RPE1 cells assessed as accumulation of cells at S phase at 100 nM incubated for 72 hrs by annexin V-FITC and PI staining based flow cytometry analysis; assay type: functional
[29] = tested on: Maver1; test: Antiproliferative activity against human MAVER-1 cells assessed as inhibition of cell growth measured for 72 hrs by MTT assay; assay type: functional, cell-based; details: Maver1, 72 h
[30] = tested on: HeLa; test: Induction of cell cycle arrest in human HeLa cells assessed as accumulation of cells at S phase at 2500 nM incubated for 72 hrs by annexin V-FITC and PI staining based flow cytometry analysis; assay type: functional
[31] = tested on: HeLa; test: Induction of apoptosis in human HeLa cells assessed as viable cells measured after 72 hrs by annexin V-FITC and PI staining based flow cytometry analysis; assay type: functional, cell-based; details: dose 100-2500 nM
[32] = tested on: AHH-1; test: Induction of apoptosis in human AHH-1 cells at 1000 to 2500 nM measured after 72 hrs by annexin V-FITC and PI staining based flow cytometry analysis; assay type: functional; details: dose 1000-2500 nM
[33] = Toxicity in human T cells derived from human PBMC assessed as viable cells at 2.5 uM measured for 72 hrs by annexin V-FITC and PI staining based flow cytometry analysis (reference value: 66.5 to 77.5 %); assay type: cell-based, T-cell; details: read-out: Activity
[34] = tested on: U2932; test: Antiproliferative activity against human U2932 cells assessed as inhibition of cell growth measured for 72 hrs by MTT assay; assay type: functional, cell-based; details: U2932, 72 h

Compound: COc1cc(C(=O)c2ccn(-c3ncnc4[nH]ccc34)c2)cc(OC)c1OC
- Activity [1]: 0.41%
- Activity [2]: 34.4%
- viability at 48 h, 1 µM [3]: 74.9%
- Activity [4]: 0.41%
- Activity [5]: 0.28%
- Activity [6]: 69.7%
- Activity [7]: 43.2%
- half-life [8]: 50.5 min
- Activity [9]: 0.48%
- IC50 [10]: 0.101 µM
- viability at 72 h, 0.1 µM [11]: 68.1%
- IC50 [12]: 0.038 µM
- half-life [13]: 14.7 min
- Activity [14]: Non-Toxic
- Activity [15]: 3.4%
- Activity [16]: 19.4%
- Activity [17]: inactive
- Activity [18]: Active
- IC50 [19]: 0.0216 µM
- Activity [20]: 7.06%
- Activity [21]: 12.2%
- inhibition [22]: 85%
- Activity [23]: Non-Toxic
- IC50 [24]: 0.0236 µM
- Activity [25]: Active
- Activity [26]: 252 mm3
- microsomal CLint [27]: 28 µL/min/mg
- Activity [28]: 2.3%
- IC50 [29]: 0.0631 µM
- Activity [30]: 48.7%
- Activity [31]: Dose-Dependent Effect
- Activity [32]: 80%
- viability at 72 h, 2.5 µM [33]: 64.3%
- IC50 [34]: 0.021 µM
